Source: patent publication US7368570B2, “Organometallic complexes as singlet oxygen sensitizers” (University of Southern California, priority 2003, dated 2008)

Key:
[1] = quantum yield for singlet oxygen production from 1O2 luminescence at 1268 nm; type: physicochemical; settings: for ΦΔ532 nm: only measured if compounds absorb at 532 nm; for ΦΔ quantum yield for singlet oxygen generation: benzene, air-saturated
Text: The quantum yields for singlet oxygen production (ΦΔ) were obtained by measuring the intensity of the ^1O2 luminescence signal (λmax=1268 nm). Measurements were taken with 355 and 532 nm excitation (λ), in air-saturated solutions.
The quantum yields were obtained by measuring the intensity of the ^1O2 luminescence signal (λmax=1268 nm), with a liquid nitrogen cooled germanium photodiode. Measurements were taken at 355 and 532 nm excitation, in air-saturated solutions, with TPP, C60 and Perinaphthenone as references. The optical density of the photosensitizer solutions was generally kept between 0.05 and 0.4 at 355 nm excitation wavelength, and 0.03 and 0.2 at 532 nm excitation wavelength.

[2] = phosphorescence emission properties in solution; type: physicochemical; settings: room temperature, from the phosphorescence spectrum
Text: Table 3 provides quantum yields and singlet oxygen quenching rates for Ir(III) and Pt(II) complexes of this invention. Eem(eV)=the emission maximum energy in eV at room temperature, as determined from the phosphorescence spectrum; ΦPE=the quantum efficiency for emission in solution; τPE=the emission lifetime at room temperature or 77K (in solution).

[3] = singlet oxygen luminescence quenching rate constants; type: physicochemical; settings: for kq singlet oxygen quenching rate: Table 3, not marked MeOD, TPP in benzene or chloroform
Protocol: (§1) TPP in benzene or chloroform with OD 0.5-0.7 was used as blank/solvent solution to produce singlet oxygen. The intensity of ^1O2 luminescence signals was measured at 532 nm excitation in air-saturated solutions with a liquid nitrogen cooled germanium photodiode at 1268 nm. 0.02-0.5 mL quencher stock solution of Ir(III) complexes in […] was added to the blank solution. The decay trace of singlet oxygen was then re-measured, and the additions repeated 6-10 times. Singlet oxygen quenching rate constants by the Ir(III) complexes were obtained from the slopes of Stern Volmer plots (See FIG. 7).

[4] = from references (footnote e), cited from earlier work; for λem: emission
[5] = 355 nm, reference value; cited from earlier work
[6] = solubility; type: physicochemical
Protocol: as §1

[7] = oxidation and excited state redox potentials; type: physicochemical
[8] = 355 nm excitation, Table 3, not marked MeOD

| Compound | ΦΔ355 nm [1, 8] | Eem emission maximum energy [2] [eV] | kq singlet oxygen quenching rate [3] | λem [4] [nm] | ΦΔ532 nm ([1]; 532 nm excitation) | further results |
| --- | --- | --- | --- | --- | --- | --- |
| CC(=O)C=C(C)[O][Ir]([c]1ccccc1-c1nc2ccccc2o1)[c]1ccccc1-c1nc2ccccc2o1 [(bo)2Ir(acac)] | 0.76 ± 0.06 | 2.36 | (1.8 ± 0.3) × 10^5 M^−1s^−1 | 525 | – | ΦPE quantum efficiency for emission in solution [4]: 0.25 |
| c12c3c4c5c1c1c6c7c2c2c8c3c3c9c4c4c%10c5c5c1c1c6c6c%11c7c2c2c7c8c3c3c8c9c4c4c9c%10c5c5c1c1c6c6c%11c2c2c7c3c3c8c4c4c9c5c1c1c6c2c3c41 [Photosensitizer C60] | – | – | – | – | – | ΦΔ of reference for quantum yield measurements [5]: 0.76 |
| [CH3][Pt][CH3].c1ccc(-c2ccccn2)nc1 [(bpy)PtMe2] | 0 | – | (2.4 ± 0.1) × 10^9 M^−1s^−1 | – | 0 | – |
| O=C1C=Cc2cccc3cccc1c23 [Perinaphthenone] | – | – | – | – | – | ΦΔ of reference for quantum yield measurements [5]: 0.95 |
| CC(=Nc1cc(C)cc(C)c1)C(C)=Nc1cc(C)cc(C)c1.[CH3][Pt][CH3] [(CyPh2)PtMe2] | 0 | – | (1.5 ± 0.1) × 10^9 M^−1s^−1 | – | 0 | – |
| [CH3][Pt]1([CH3])[N]2C=CC=c3ccc4c(c32)[N]1C=CC=4 [(Phen)PtMe2] | 0 | – | (2.0 ± 0.2) × 10^9 M^−1s^−1 | – | 0 | – |
| CC1=CC(c2ccccc2)=c2ccc3c4c2[N]1[Pt]([CH3])([CH3])[N]4C(C)=CC=3c1ccccc1 [(PhenPh2)PtMe2] | 0 | – | (1.7 ± 0.2) × 10^9 M^−1s^−1 | – | 0 | – |
| NCC(=O)[O][Ir]([c]1ccc2ccccc2c1-c1nc2ccccc2s1)[c]1ccc2ccccc2c1-c1nc2ccccc2s1 [BSN-G, iridium(III) bis(2-(1-naphthyl)benzothiazolato-N,C^2)glycinate] | 0.54 ± 0.02 | 2.05 | (2.1 ± 0.5) × 10^6 M^−1s^−1 | 606 | 0.81 ± 0.06 | ΦΔ quantum yield for singlet oxygen generation ([1]; 355 nm excitation): 0.54 ± 0.02; ΦΔ355 nm ([1]; 355 nm excitation, measured in MeOD): 0.62 ± 0.05; ΦΔ quantum yield for singlet oxygen generation ([1]; 532 nm excitation): 0.81 ± 0.06; solubility remark ([6]; line marked measured in MeOD): Not soluble |
| c1ccc(-c2cccc[c]2[Ir]([c]2ccccc2-c2ccccn2)[c]2ccccc2-c2ccccn2)nc1 [(ppy)3Ir, Tris-(2-phenylpyridinato, N, C^2′) iridium (III)] | 0.92 ± 0.07 | – | – | – | – | E(Sen^+/*) excited state redox potential ([7]; vs. NHE, E00 estimated using Eem): −1.45 V; E(Sen^+/0) oxidation potential ([7]; vs. ferrocene/ferrocenium): 0.32 V; solubility remark ([6]; Table 3, not marked MeOD): Not soluble |
| iridium(III) bis(2-phenylbenzothiazolato-N, C^2)pyridyl chloride [BT-py] | 0.95 ± 0.09 | 2.23 | – | 558 | 1.00 ± 0.09 | singlet oxygen quantum yield / production, in words [1]: high quantum yield; ΦΔ quantum yield for singlet oxygen generation ([1]; 355 nm excitation): 0.95 ± 0.09; ΦΔ quantum yield for singlet oxygen generation ([1]; 532 nm excitation): 1.00 ± 0.09; singlet oxygen quenching, in words [3]: no measurable singlet oxygen quenching; kq(^1O2) singlet oxygen quenching rate ([3]; benzene): None |
